Test results reported in patent EP0377642B1, “HERBICIDES FOR WEED CONTROL IN RICE” (E.I. DU PONT DE NEMOURS AND COMPANY, priority 1987, dated 1989).

Columns and labels:
[1] = test system: PS; test: Herbicidal efficacy in relation to application timing in Indonesia (Table 5); format: in vivo
Description: (§1) Methyl 2-[[[[(4-methoxy-6-methyl-1,3,5-triazin-2-yl)amino]carbonyl]amino]sulfonyl]benzoate (Compound 1) and mixtures thereof with other compounds were applied as a spray (using a hand sprayer) to rice (either transplanted or direct seeded) in several rice growing areas in Southeast Asia and in the U.S. Tables 1-28 contain the results of these tests and clearly exemplify the utility of this invention. The details of each application are included in the appropriate table. [drawing 2]

[2] = test system: MV; test: as above; format: in vivo
Description: as §1

COC(=O)c1ccccc1S(=O)(=O)NC(=O)Nc1nc(C)nc(OC)n1 [Compound 1, Methyl 2-[[[[(4-methoxy-6-methyl-1,3,5-triazin-2-yl)amino]carbonyl]amino]sulfonyl]benzoate]
% CONTROL PS ([1]; 4 WAT, 3 GAI/HA, evaluation 3): 0%
% CONTROL PS ([1]; 4 WAT, 4 GAI/HA, evaluation 1): 0%
% CONTROL PS ([1]; 4 WAT, 4 GAI/HA, evaluation 2): 0%
% CONTROL PS ([1]; 4 WAT, 4 GAI/HA, evaluation 3): 0%
% CONTROL PS ([1]; 4 WAT, 6 GAI/HA, evaluation 1): 0%
% CONTROL PS ([1]; 4 WAT, 6 GAI/HA, evaluation 2): 0%
% CONTROL PS ([1]; 4 WAT, 6 GAI/HA, evaluation 3): 0%
% CONTROL PS ([1]; 4 WAT, 8 GAI/HA, evaluation 1): 0%
% CONTROL PS ([1]; 4 WAT, 8 GAI/HA, evaluation 2): 0%
% CONTROL PS ([1]; 4 WAT, 8 GAI/HA, evaluation 3): 0%
% CONTROL PS ([1]; 5 WAT, 2 GAI/HA, evaluation 1): 0%
% CONTROL PS ([1]; 5 WAT, 2 GAI/HA, evaluation 2): 0%
% CONTROL PS ([1]; 5 WAT, 2 GAI/HA, evaluation 3): 0%
% CONTROL PS ([1]; 5 WAT, 3 GAI/HA, evaluation 1): 0%
% CONTROL PS ([1]; 5 WAT, 3 GAI/HA, evaluation 2): 0%
% CONTROL PS ([1]; 5 WAT, 3 GAI/HA, evaluation 3): 0%
% CONTROL PS ([1]; 5 WAT, 4 GAI/HA, evaluation 1): 0%
% CONTROL PS ([1]; 5 WAT, 4 GAI/HA, evaluation 2): 0%
% CONTROL PS ([1]; 5 WAT, 4 GAI/HA, evaluation 3): 0%
% CONTROL PS ([1]; 5 WAT, 6 GAI/HA, evaluation 1): 0%
% CONTROL PS ([1]; 5 WAT, 6 GAI/HA, evaluation 2): 0%
% CONTROL PS ([1]; 5 WAT, 6 GAI/HA, evaluation 3): 0%
% CONTROL PS ([1]; 5 WAT, 8 GAI/HA, evaluation 1): 0%
% CONTROL PS ([1]; 5 WAT, 8 GAI/HA, evaluation 2): 0%
% CONTROL PS ([1]; 5 WAT, 8 GAI/HA, evaluation 3): 0%
% CONTROL MV ([2]; 3 WAT, 2 GAI/HA, evaluation 1): 80%
% CONTROL MV ([2]; 3 WAT, 2 GAI/HA, evaluation 2): 80%
% CONTROL MV ([2]; 3 WAT, 2 GAI/HA, evaluation 3): 100%
% CONTROL MV ([2]; 3 WAT, 3 GAI/HA, evaluation 1): 80%
% CONTROL MV ([2]; 3 WAT, 3 GAI/HA, evaluation 2): 100%
% CONTROL MV ([2]; 3 WAT, 3 GAI/HA, evaluation 3): 100%
% CONTROL MV ([2]; 3 WAT, 4 GAI/HA, evaluation 1): 100%
% CONTROL MV ([2]; 3 WAT, 4 GAI/HA, evaluation 2): 100%
% CONTROL MV ([2]; 3 WAT, 4 GAI/HA, evaluation 3): 100%
% CONTROL MV ([2]; 3 WAT, 6 GAI/HA, evaluation 1): 80%
% CONTROL MV ([2]; 3 WAT, 6 GAI/HA, evaluation 2): 100%
% CONTROL MV ([2]; 3 WAT, 6 GAI/HA, evaluation 3): 100%
% CONTROL MV ([2]; 3 WAT, 8 GAI/HA, evaluation 1): 100%
% CONTROL MV ([2]; 3 WAT, 8 GAI/HA, evaluation 2): 100%
% CONTROL MV ([2]; 3 WAT, 8 GAI/HA, evaluation 3): 100%
% CONTROL MV ([2]; 4 WAT, 2 GAI/HA, evaluation 1): 80%
% CONTROL MV ([2]; 4 WAT, 2 GAI/HA, evaluation 2): 100%
% CONTROL MV ([2]; 4 WAT, 2 GAI/HA, evaluation 3): 100%
% CONTROL MV ([2]; 4 WAT, 3 GAI/HA, evaluation 1): 80%
% CONTROL MV ([2]; 4 WAT, 3 GAI/HA, evaluation 2): 100%
% CONTROL MV ([2]; 4 WAT, 3 GAI/HA, evaluation 3): 100%
% CONTROL MV ([2]; 4 WAT, 4 GAI/HA, evaluation 1): 80%
% CONTROL MV ([2]; 4 WAT, 4 GAI/HA, evaluation 2): 100%
% CONTROL MV ([2]; 4 WAT, 4 GAI/HA, evaluation 3): 100%
% CONTROL MV ([2]; 4 WAT, 6 GAI/HA, evaluation 1): 80%
% CONTROL MV ([2]; 4 WAT, 6 GAI/HA, evaluation 2): 100%
% CONTROL MV ([2]; 4 WAT, 6 GAI/HA, evaluation 3): 100%
% CONTROL MV ([2]; 4 WAT, 8 GAI/HA, evaluation 1): 100%
% CONTROL MV ([2]; 4 WAT, 8 GAI/HA, evaluation 2): 100%
% CONTROL MV ([2]; 4 WAT, 8 GAI/HA, evaluation 3): 100%
% CONTROL MV ([2]; 5 WAT, 2 GAI/HA, evaluation 1): 80%
% CONTROL MV ([2]; 5 WAT, 2 GAI/HA, evaluation 2): 80%
% CONTROL MV ([2]; 5 WAT, 2 GAI/HA, evaluation 3): 80%
% CONTROL MV ([2]; 5 WAT, 3 GAI/HA, evaluation 1): 80%
% CONTROL MV ([2]; 5 WAT, 3 GAI/HA, evaluation 2): 100%
% CONTROL MV ([2]; 5 WAT, 3 GAI/HA, evaluation 3): 100%
% CONTROL MV ([2]; 5 WAT, 4 GAI/HA, evaluation 1): 80%
% CONTROL MV ([2]; 5 WAT, 4 GAI/HA, evaluation 2): 100%
% CONTROL MV ([2]; 5 WAT, 4 GAI/HA, evaluation 3): 100%
% CONTROL MV ([2]; 5 WAT, 6 GAI/HA, evaluation 1): 80%
% CONTROL MV ([2]; 5 WAT, 6 GAI/HA, evaluation 2): 100%
% CONTROL MV ([2]; 5 WAT, 6 GAI/HA, evaluation 3): 100%
% CONTROL MV ([2]; 5 WAT, 8 GAI/HA, evaluation 1): 100%
% CONTROL MV ([2]; 5 WAT, 8 GAI/HA, evaluation 2): 100%
% CONTROL MV ([2]; 5 WAT, 8 GAI/HA, evaluation 3): 100%
